The text below walks through data of US10590129B2 (Incozen Therapeutics Pvt. Ltd., priority 2010, dated 2020).

In one data set the test system is MKN-45 cells. Description: Inhibition of MKN-45 proliferation (MTT). The data set is classed as cell-based, human. Particulars: Homo sapiens, MKN-45, MKN-45 proliferation. Put shortly: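 High-Met human gastric adenocarcinoma MKN-45 cells plated in complete growth medium, compounds added next day and viability read 3 days later by MTT dye reduction.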

Bounds are passed on as bounds.

Turning to `OCc1cc(-c2ccc3nnn(Cc4ccc5ncccc5c4)c3n2)cs1` [Ex 188, (4-(3-(Quinolin-6-ylmethyl)-3H-[1,2,3]triazolo[4,5-b]pyridin-5-yl)thiophen-2-yl) methanol], the melting point (in general, the temperature, or range, at which the solid turns liquid) fell in the range of 188 to 191 °C. Also, in the data set with MKN-45 cells, the 50% growth inhibitory concentration (GI50) (usually the concentration that inhibits growth by half) was in the range of 50 to 150 nM and the inhibition (as a rule, how much of the control response was suppressed) at 0.1 µM was in the range of 75 to 100%.
Turning to `CCc1n[nH]c2cc(-c3ccc4nnn(Cc5ccc6ncccc6c5)c4n3)ccc12` [Ex 191, 6-((5-(3-ethyl-1H-indazol-6-yl)-3H-[1,2,3]triazolo[4,5-b]pyridin-3-yl)methyl)quinoline], the melting point was in the range of 211 to 213 °C. In the data set with MKN-45 cells, the inhibition at 0.1 µM lay in the range of 25 to 50% and the inhibition at 1 µM fell in the range of 25 to 50%.
With `Cc1csc(-c2ccc3nnn(Cc4ccc5ncccc5c4)c3n2)c1` [Ex 193, 6-((5-(4-Methylthiophen-2-yl)-3H-[1,2,3]triazolo[4,5-b]pyridin-3-yl)methyl)quinoline], the melting point lay in the range of 153 to 156 °C. In the data set on MKN-45 cells, this molecule displayed an inhibition at 0.1 µM below 25% and an inhibition at 1 µM of 50 to 75%.
Consider `Cc1ccc(-c2ccc3nnn(Cc4ccc5ncccc5c4)c3n2)s1` [Ex 194, 6-((5-(5-Methylthiophen-2-yl)-3H-[1,2,3]triazolo[4,5-b]pyridin-3-yl)methyl)quinoline], for which the melting point was 154 to 156 °C. In the data set with MKN-45 cells, this molecule came in with an inhibition at 0.1 µM below 25% and an inhibition at 1 µM of 50 to 75%.
The matching figures for `c1cnc2ccc(Cn3nnc4ccc(-c5ccc(N6CCOCC6)nc5)nc43)cc2c1` [Ex 195, 4-(5-(3-(Quinolin-6-ylmethyl)-3H-[1,2,3]triazolo[4,5-b]pyridin-5-yl)pyridin-2-yl)morpholine]: 183 to 185 °C, 25 to 50% and 50 to 75%.
The matching figures for `c1cnc2ccc(Cn3nnc4ccc(-c5ccc(N6CCCCC6)nc5)nc43)cc2c1` [Ex 196, 6-((5-(6-(Piperidin-1-yl)pyridin-3-yl)-3H-[1,2,3]triazolo[4,5-b]pyridin-3-yl)methyl)quinoline]: 133 to 135 °C, below 25% and below 25%.
`CCn1cc(-c2ccc3nnn(Cc4ccc5ncccc5c4)c3n2)cn1` [Ex 197, 6-((5-(1-Ethyl-1H-pyrazol-4-yl)-3H-[1,2,3]triazolo[4,5-b]pyridin-3-yl)methyl)quinoline] showed a melting point of 132 to 134 °C. The inhibition at 0.1 µM with MKN-45 cells lay in the range of 25 to 50%.
For `CC(C)n1cc(-c2ccc3nnn(Cc4ccc5ncccc5c4)c3n2)cn1` [Ex 198, 6-((5-(1-Isopropyl-1H-pyrazol-4-yl)-3H-[1,2,3]triazolo[4,5-b]pyridin-3-yl)methyl)quinoline], the melting point lay within 126 to 128 °C. Further, the inhibition at 0.1 µM in the data set on MKN-45 cells was below 25%.
For the molecule `CC(C)Cn1cc(-c2ccc3nnn(Cc4ccc5ncccc5c4)c3n2)cn1` [Ex 199, 6-((5-(1-Isobutyl-1H-pyrazol-4-yl)-3H-[1,2,3]triazolo[4,5-b]pyridin-3-yl)methyl)quinoline], the melting point was in the range of 160 to 163 °C. Also, the inhibition at 0.1 µM in the data set on MKN-45 cells was below 25%.
